For assay [1], the system named is National Cancer Institute's P388 lymphocytic leukemia cell line. As to conditions: cited from earlier work.
The test system of assay [2] is collagen induced arthritis in DBA-1 mice. Briefly: Collagen induced arthritis, therapeutic model (mean arthritic score, histopathology). Type of assay: in vivo. As to conditions: 5 mg/kg/day intraperitoneally, 21 days from day 48, necropsy day 71, vs vehicle.
Assay [3] has the same test system. Briefly: Collagen induced arthritis, prophylactic model (mean arthritic score). Type of assay: in vivo. Particulars: 5 mg/kg/day intraperitoneally, day 26 to day 35 post immunization.

With Dolastatin-15, the “inhibition of cell growth” value in assay [1] is recorded as “markedly inhibits the growth”.

For the molecule `C[C@@H]1C[C@H]2[C@@H]3CCC4=CC(=O)C=C[C@]4(C)[C@@]3(F)[C@@H](O)C[C@]2(C)[C@@]1(O)C(=O)CO` [dexamethasone], in assay [2], the “cartilage involvement (cartilage damage, histopathology, scale 0-3)” value is listed as “significantly suppressed” and the “synovitis (synovial inflammation, histopathology, scale 0-3)” value is “significantly suppressed”. Besides, the “signs of rheumatoid arthritis after end of treatment (mean arthritic score)” value in assay [3] is “exhibited signs of rheumatoid arthritis immediately following the end of treatment”.

These data come from patent publication US6015790A, “Methods and compositions for treating rheumatoid arthritis” (BASF Aktiengesellschaft, priority 1997, dated 2000).
